“Also recorded” adds a separate entry of the source.
Experiments:
[1] = system: P 388; test: P 388 (ip-iv), survival T/C; assay type: in vivo, mice
Experimental: (§1) In the Table, the symbol T/C % means Treatment/Control %, that is the increase in life when the control is 100. The values are obtained by implanting tumor cells to groups of mice (or rats), administering the compound being tested in various amounts every 24 hours after the implantation of the tumor cells and then calculating the ratio, the median survival time of the group to which the compound has been administered to the survival of the control, multiplied by a factor of 100. This method is used in the screening of U.S. National Cancer Institute.
(§2) In Table 9, "iv" and "sc" means that the administration of the compounds is carried out intravenously and the implantation of the tumor cells is carried out subcutaneously.

[2] = system: Lewis Lung Carcinoma; test: Lewis Lung Carcinoma (sc-ip), inhibition; assay type: in vivo; conditions: 8 mg/kg × 11, after 17 days
[3] = Neuropharmacological multidimentional observation (modified Arwin and Smith method); assay type: in vivo, 4-weeks CD-1 (IRC) mice; conditions: intraperitoneal, 1 to 20 mg/kg, observed every 30 minutes for 180 minutes, compared with patterns of known medicines
Experimental: In this test, other pharmacological effects which may be obtained by these compounds were investigated.
Each compound of the invention was intraperitoneally administered to 4-weeks CD-1 (IRC) mice (Nippon Charles Liver K.K.) in the dose of 1 to 20 mg/kg with using mice groups consisting of three mice per group. […] The observation was carried out according to the modified Arwin method and Smith method, i.e., neuropharmacological multidimentional observation method.
Making a comparison between the symptom observed and the pattern of the pharmacological action due to the known medicines, it has been discovered that each compound of the invention has the following pharmacological effect.

[4] = system: MM2; test: MM2 (ip-ip), survival T/C; assay type: in vivo, mice; conditions: for effectiveness against MM2: (see Table 7); for T/C / mice living more than 60 days (60<): additional tests, MM2 (ip-ip); for mice continuing to live more than 60 days after implantation (60<): Table 7, MM2 (i.P. - i.P.)
Experimental: (§3) In the Table, the symbol T/C % means Treatment/Control %, that is the increase in life when the control is 100. The values are obtained by implanting tumor cells to groups of mice (or rats), administering the compound being tested in various amounts every 24 hours after the implantation of the tumor cells and then calculating the ratio, the median survival time of the group to which the compound has been administered to the survival of the control, multiplied by a factor of 100. This method is used in the screening of U.S. National Cancer Institute. […]
(§4) In Table 7, the symbol "i.P.-i.P." means that the tumor cells are implanted intraperitoneally and the compounds being tested are also administered intraperitoneally. The symbol "TR" is the therapeutic ratio obtained by dividing the dose which provides a maximum T/C value, by the dose which provides a minimum T/C value.
The term in Table 7, last column "3/6 60<", means that 3 mice out of 6 mice continue to live more than 60 days after the implantation of the tumor cells.

[5] = system: Erlich carcinoma; test: Erlich carcinoma (sc-ip), inhibition; assay type: in vivo; conditions: 4 mg/kg × 11, after 14 days
[6] = system: P-388 cells; test: Antineoplastic action against implanted P-388 cells (ip-ip), survival T/C; assay type: in vivo, CDFl mice; conditions: for T/C % (Treatment/Control %): Table 6, P388, intraperitoneal
Experimental: To the peritoneal cavity of each group of mice consisting of six CDFl mice per group, 10^6 /0.1 ml of P-388 cells or 10^5 /0.1 ml of L-1210 cells were implanted. […]
In the Table, the symbol T/C % means Treatment/Control %, that is the increase in life when the control is 100. […] This method is used in the screening of U.S. National Cancer Institute.
as §4

[7] = system: L-1210 cells; test: Antineoplastic action against implanted L-1210 cells (ip-ip), survival T/C; assay type: in vivo, CDFl mice
Experimental: In this animal test, the antineoplastic action against the implanted tumor was examined in lower animals, in vivo, in respect of the compounds according to the present invention, by using CDFl mice.
To the peritoneal cavity of each group of mice consisting of six CDFl mice per group, 10^6 /0.1 ml of P-388 cells or 10^5 /0.1 ml of L-1210 cells were implanted. […] While to the control groups of CDFl mice, P-388 and L-1210 cells were implanted in the same manner and they were bred without administration of the compounds.
as §1, §4

[8] = system: Colon. 38; test: Colon. 38 (sc-ip), inhibition; assay type: in vivo; conditions: 8 mg/kg × 11, after 17 days
[9] = Toxicity test, lethal dose (Litchfield-Wilcoxon); assay type: in vivo, male 4-weeks CD-1 (ICR) mice; conditions: suspension in 0.5% CMC, 7 days observation
Experimental: With respect to the compounds of this invention, the lethal dose was determined as follows.
By using male 4-weeks CD-1 (ICR) mice consisting of 5 to 10 mice per group, the desired amount of each compound of this invention was suspended in 0.5% CMC solution and the resultant suspension was administered to each mouse intraperitoneally or intravenously. Observing the life or death as well as the general symptome during 7 days after the administration of the compounds, the value of LD50 for each compounds was estimated from the lethal population observed on the basis of the Litchfield-Wilcoxon method.

[10] = system: B-16 melanoma; test: B16 melanoma (ip-ip), survival T/C; assay type: in vivo, mice; conditions: for effectiveness against B-16 melanoma: (see Table 7)
Experimental: as §3, §4

[11] = system: P 388; test: P 388 (sc-iv), survival T/C; assay type: in vivo, mice
Experimental: as §1, §2

[12] = system: Colon 26; test: Colon 26 (ip-ip), survival T/C; assay type: in vivo; conditions: 4 mg/kg × 9
Experimental: as §1

[13] = system: Yoshida sarcoma; test: Yoshida sarcoma (ip-ip), survival T/C; assay type: in vivo
Experimental: as §1

[14] = system: MOPC-104E; test: MOPC-104E (ip-ip), survival T/C; assay type: in vivo; conditions: 2 mg/kg × 9 times
Experimental: as §1

Row | Compound | T/C ([1]; 5.56 mg/kg × 9) | effectiveness against MM2 [4] | MM2 (i.P. - i.P.) T/C (%) ([4]; Table 7, dose 0.5 mg/kg) | MM2 (i.P. - i.P.) T/C (%) ([4]; Table 7, dose 2 mg/kg) | T/C % (Treatment/Control %) ([6]; dose 0.05 mg/kg) | T/C % (Treatment/Control %) ([6]; dose 0.5 mg/kg) | T/C % (Treatment/Control %) ([6]; dose 2 mg/kg) | T/C % (Treatment/Control %) ([6]; dose 10 mg/kg) | P388 (i.P. - i.P.) T/C (%) ([6]; Table 7, dose 0.05 mg/kg) | P388 (i.P. - i.P.) T/C (%) ([6]; Table 7, dose 0.5 mg/kg) | P388 (i.P. - i.P.) T/C (%) ([6]; Table 7, dose 2 mg/kg) | P388 (i.P. - i.P.) T/C (%) ([6]; Table 7, dose 5 mg/kg) | L1210 (i.P. - i.P.) T/C (%) ([7]; Table 7, dose 0.5 mg/kg) | L1210 (i.P. - i.P.) T/C (%) ([7]; Table 7, dose 2 mg/kg) | LD50 and 95% Confidence Limit ([9]; intravenous) | effectiveness against B-16 melanoma [10] | B16 (i.P. - i.P.) T/C (%) ([10]; Table 7, dose 0.5 mg/kg) | B16 (i.P. - i.P.) T/C (%) ([10]; Table 7, dose 2 mg/kg) | B16 (i.P. - i.P.) T/C (%) ([10]; Table 7, dose 4 mg/kg) | other results
1 | COc1ccc(CC2C(=O)NC(C)C(=O)N(C)C3Cc4ccc(cc4)Oc4cc(ccc4OC(C)=O)CC(C(=O)NC(C)C(=O)NC(C)C(=O)N2C)N(C)C3=O)cc1 (stereo not drawn) [Ex. 22] | 171.5% | effective | 102.5% | 109.2% | 133.3% | 155.6% | 168.9% | 194.7% | 133.3% | 155.6% | 168.9% | 175.8% | 110.0% | 114.4% | 20.0(15.2-26.3) mg/kg | effective | 116.9% | 128.5% | 147.8% | T/C ([1]; 1.11 mg/kg × 9): 112.5%; Inhibition [2]: 65.4%; Pharmacological effect estinated ([3]; listed as Acetic acid ester of TPC-A): emetic action; also recorded: psychotropic action; also recorded: antidiuretic action; MM2 (i.P. - i.P.) T/C (%) ([4]; Table 7, dose 5 mg/kg): 117.8%; MM2 (i.P. - i.P.) T/C (%) ([4]; Table 7, dose 10 mg/kg): 120.9%; Inhibition [5]: 46.9%; P388 (i.P. - i.P.) T/C (%) ([6]; Table 7, dose 10 mg/kg): 194.7%; L1210 (i.P. - i.P.) T/C (%) ([7]; Table 7, dose 0.05 mg/kg): 100.9%; L1210 (i.P. - i.P.) T/C (%) ([7]; Table 7, dose 5 mg/kg): 120.0%; L1210 (i.P. - i.P.) T/C (%) ([7]; Table 7, dose 10 mg/kg): 128.9%; Inhibition [8]: 51.9%; LD50 and 95% Confidence Limit ([9]; intraperitoneal): 18.4(16.9-20.0) mg/kg; B16 (i.P. - i.P.) T/C (%) ([10]; Table 7, dose 8 mg/kg): 141.1%
2 | COc1ccc(C[C@H]2C(=O)N[C@H](C)C(=O)N(C)[C@@H]3Cc4ccc(cc4)Oc4cc(ccc4O)C[C@H](C(=O)N[C@@H](C)C(=O)N[C@@H](C)C(=O)N2C)N(C)C3=O)cc1.COc1ccc(C[C@H]2C(=O)N[C@H](C)C(=O)N(C)[C@@H]3Cc4ccc(cc4)Oc4cc(ccc4O)C[C@H](C(=O)N[C@@H](C)C(=O)N[C@@H](C)C(=O)N2C)N(C)C3=O)cc1.COc1ccc(C[C@H]2C(=O)N[C@H](C)C(=O)N(C)[C@@H]3Cc4ccc(cc4)Oc4cc(ccc4O)C[C@H](C(=O)N[C@@H](C)C(=O)N[C@@H](C)C(=O)N2C)N(C)C3=O)cc1.COc1ccc(C[C@H]2C(=O)N[C@H](C)C(=O)N(C)[C@@H]3Cc4ccc(cc4)Oc4cc(ccc4O)C[C@H](C(=O)N[C@@H](C)C(=O)N[C@@H](C)C(=O)N2C)N(C)C3=O)cc1.O.O.O.O.O [TPC-A] | 121.4% | – | – | – | – | – | – | 187.4% | – | – | – | – | – | – | 34.0(28.1-41.2) mg/kg | – | – | – | – | Pharmacological effect estinated [3]: emetic action; also recorded: anorexigenic action; also recorded: psychotropic action; also recorded: vasoconstrictive; also recorded: papaverine action; also recorded: antiper-; T/C ([4]; 2.78 mg/kg × 9): 138.7%; T/C ([4]; 5.56 mg/kg × 9): 231.2%; mice living more than 60 days (60<) ([4]; 5.56 mg/kg × 9): 2/6; T/C ([4]; 6.94 mg/kg × 9): 184.3%; mice living more than 60 days (60<) ([4]; 6.94 mg/kg × 9): 1/7; T/C ([11]; 5 mg/kg × 7): 179.6%; mice living more than 60 days (60<) ([11]; 5 mg/kg × 7): 2/7; T/C ([11]; 7 mg/kg × 7): 153.7%; mice living more than 60 days (60<) ([11]; 7 mg/kg × 7): 1/7; T/C ([11]; 10 mg/kg × 7): 127.8%
3 | CCCCCCOc1ccc2cc1Oc1ccc(cc1)CC1C(=O)N(C)C(C2)C(=O)NC(C)C(=O)NC(C)C(=O)N(C)C(Cc2ccc(OC)cc2)C(=O)NC(C)C(=O)N1C (stereo not drawn) [Ex. 2, n-hexylether of the compound TPC-A] | – | effective | 110.3% | 129.3% | 110.3% | 137.3% | 153.5% | – | 130.4% | 143.5% | 150.0% | 176.1% | 115.6% | 126.6% | – | effective | 130.5% | 158.2% | 136.2% | T/C ([1]; 5 mg/kg × 5): 118.9%; T/C [12]: 133.7%; mice living more than 60 days (60<) [12]: 2/6; mice continuing to live more than 60 days after implantation (60<) ([4]; dose 2 mg/kg): 3/6; mice continuing to live more than 60 days after implantation (60<) ([4]; dose 4 mg/kg): 1/7; MM2 (i.P. - i.P.) T/C (%) ([4]; Table 7, dose 4 mg/kg): 161.8%; T/C % (Treatment/Control %) ([6]; dose 4 mg/kg): 173.0%; L1210 (i.P. - i.P.) T/C (%) ([7]; Table 7, dose 4 mg/kg): 130.9%; T/C ([13]; 0.1 mg/kg × 5): 129.7%; T/C ([13]; 0.5 mg/kg × 5): 173.6%; T/C ([13]; 1 mg/kg × 5): 160.4%; T/C ([13]; 2.5 mg/kg × 5): 149.5%; T/C [14]: 145.3%
